Consider 16 compounds from patent US7071215B2 (Pharmacia & Upjohn Company LLC, priority 2002, dated 2006).

By % Inhibition is commonly meant the percentage by which the read-out fell short of the control.

The assay in a line: binding assay as described in U.S. Pat. No. 5,859,188 (Geary, et al., 1999): displacement of a radiolabelled ligand. The note with it: percent displacement of a radiolabelled ligand at 25 micromolar. The method, then:
Selected compounds were evaluated for their anti-parasitic activity in a binding assay as described in U.S. Pat. No. 5,859,188 (Geary, et al., 1999). Results of the evaluations are given in Table 2 wherein “% Inhibition” means percent displacement of a radiolabelled ligand at 25 micromolar as described.

`O=C(CN1CCCCC1)Nc1sc2c(c1C(=O)c1ccc(Cl)cc1)CCOC2` [Compound 1, N-[3-(4-chlorobenzoyl)-4,7-dihydro-5H-thieno[2,3-c]pyran-2-yl]-2-piperidin-1-ylacetamide]: the “% Inhibition” value is reported as 93–99%.

Regarding `O=C(CN1CCCC(O)C1)Nc1sc2c(c1C(O)c1cccs1)CCSC2` (stereo not shown) [Compound 49], the “% Inhibition” value is 46–55%.

With `O=C(CN1CCCCC1)Nc1sc2c(c1C(=O)c1cccs1)CCSC2` [Compound 37], the “% Inhibition” value is on record as 0–66%.

On to `O=C(CN1CCCCC1)Nc1sc2c(c1C(O)c1ccc(Cl)cc1)CCOC2` (stereo not shown) [Compound 2, N-{3-[(4-chlorophenyl)(hydroxy)methyl]-4,7-dihydro-5H-thieno[2,3-c]pyran-2-yl}-2-piperidin-1-ylacetamide], for which the “% Inhibition” value is reported as 85–95%.

With `O=C(CN1CCCC(O)C1)Nc1sc2c(c1C(O)c1ccc(Cl)cc1)CCSC2` (stereo not shown) [Compound 20], the “% Inhibition” value was 86–88%.

With `Cc1ccc(C(O)c2c(NC(=O)CN3CCCC(O)C3)sc3c2CCSC3)cc1` (stereo not shown) [Compound 40], the “% Inhibition” value is listed as 100%.

Regarding `O=C(CN1CCCC(O)C1)Nc1sc2c(c1C(=O)c1cccc(C(F)(F)F)c1)CCSC2` (stereo not shown) [Compound 33], the “% Inhibition” value is recorded as 92–94%.

Regarding `Cc1ccc(C(=O)c2c(NC(=O)CN3CCCC(O)C3)sc3c2CCSC3)cc1` (stereo not shown) [Compound 28], the “% Inhibition” value was 11–79%.

With `O=C(CN1CCCC(O)C1)Nc1sc2c(c1C(O)c1ccc(Cl)cc1)CCOC2` (stereo not shown) [Compound 4, N-{3-[(4-chlorophenyl)(hydroxy)methyl]-4,7-dihydro-5H-thieno[2,3-c]pyran-2-yl}-2-(3-hydroxypiperidin-1-yl)acetamide], the “% Inhibition” value is reported as 72–84%.

Regarding `O=C(CN1CCCC(O)C1)Nc1sc2c(c1C(=O)c1ccco1)CCSC2` (stereo not shown) [Compound 10], the “% Inhibition” value is 21–38%.

On to `O=C(CN1CCCC(O)C1)Nc1sc2c(c1C(=O)c1ccc(F)cc1)CCSC2` (stereo not shown) [Compound 53], for which the “% Inhibition” value is listed as 19–20%.

With `O=C(CN1CCCC(O)C1)Nc1sc2c(c1C(=O)c1ccc(F)c(F)c1)CCSC2` (stereo not shown) [Compound 55], the “% Inhibition” value worked out at 100%.

Regarding `O=C(CN1CCCCC1)Nc1sc2c(c1C(=O)c1cccc(F)c1)CCSC2` [Compound 56], the “% Inhibition” value was 99–100%.

`O=C(CN1CCCC(O)C1)Nc1sc2c(c1C(O)c1ccc(F)cc1)CCSC2` (stereo not shown) [Compound 54]: the “% Inhibition” value is 93–97%.

`O=C(CN1CCCCCC1)Nc1sc2c(c1C(O)c1ccc(Cl)cc1)CCSC2` (stereo not shown) [Compound 24]: the “% Inhibition” value was 11–58%.

Regarding `O=C(CN1CCCC(O)C1)Nc1sc2c(c1C(=O)c1ccc(Cl)cc1)CCOC2` (stereo not shown) [Compound 3, N-[3-(4-chlorobenzoyl)-4,7-dihydro-5H-thieno[2,3-c]pyran-2-yl]-2-(3-hydroxypiperidin-1-yl)acetamide], the “% Inhibition” value was 96–97%.
